The text below walks through data of PubChem BioAssay AID489032 (Sanford-Burnham Center for Chemical Genomics, 2010).

The structures appear in SMILES notation. pEC50: −log10 of the molar value. Activity calls are given as the source filed them. The rule behind the calls is not given here.

This experiment concerns UPR adaptive arm reporter cells, luciferase luminescence. The experiment in a line: adaptive unfolded protein response reporter activation – cell-based, luciferase luminescence, dose response (AID 489032).
On to `COc1ccc(OC)c(-c2nnc3n2N=C(c2ccc(OC)c(OC)c2)CS3)c1`, for which the EC50 was > 80 µM (inactive).

With `CCOc1ccc(NC(=S)NC(=O)/C=C/c2ccc(OC)c(OC)c2)c([N+](=O)[O-])c1`, the EC50 was > 80 µM (inactive).

On to `CCc1nc(N=Nc2c(O)[nH]c3ccccc23)c2c3c(sc2n1)CCC3`, for which the pEC50 is 4.79.

For the compound `CCc1ccc(-n2c(SCC(=O)c3ccc4c(c3)NC(=O)CO4)nc3ccccc3c2=O)cc1`, the EC50 is > 80 µM (inactive).

On to `CN(C)CCCN(C(=O)c1ccc(S(=O)(=O)N2CCc3ccccc3C2)cc1)c1nc2ccc(F)cc2s1`, for which the EC50 is > 80 µM (inactive).

As to `COc1ccc(N2CCN(Cc3nc(N)nc(Nc4ccc(C)c(Cl)c4)n3)CC2)cc1`, the negative logarithm of the EC50 (pEC50) was 4.74.

In the case of `CCOc1cc2c3c(c1)C(C)=CC(C)(C)N3C(=O)C2=O`, the EC50 was 54.6 µM (inactive).

`O=c1[nH]c(CSc2ncnc3sc(-c4ccccc4)cc23)nc2ccccc12`: the EC50 is > 80 µM (inactive).

`Cc1ccc2nc(SCC(=O)Nc3cc(C(F)(F)F)ccc3N3CCOCC3)[nH]c2c1`: the EC50 is > 80 µM (inactive).

As for `CCOC(=O)c1nnc(-c2ccccc2)nc1Sc1c(Cl)cccc1Cl`, the EC50 is > 80 µM (inactive).

For the compound `Cc1cc(-n2c(SCC(=O)Nc3ccc(F)c(F)c3)nc3n[nH]c(C)c3c2=N)ccc1Cl`, the EC50 is > 80 µM (inactive).

As to `Cn1nc(C(F)(F)F)c(/C=N/OC(=O)c2ccccc2)c1SCc1ccccc1Cl`, the pEC50 was 4.99.

`N#Cc1c(-c2ccc3c(c2)OCO3)ccn2nc(-c3cccc(C(F)(F)F)c3)nc12`: the EC50 was > 80 µM (inactive).

With `Cc1ccc2c(=O)[nH]c(Nc3nc(C)cc(-c4ccccc4)n3)nc2c1`, the EC50 is > 80 µM (inactive).

Take `CSC1=NC(C)(C)C=C(/C=C/c2ccc(Cl)cc2)N1`: the EC50 was > 80 µM (inactive).

`CN(C)S(=O)(=O)c1ccc(N2CCCC2)c(C(=O)Nc2nccs2)c1`: the EC50 was 50 µM (inactive).

Regarding `CCOC(=O)c1c(-c2ccc(C)o2)csc1NC(=O)COC(=O)c1ccc(NC(N)=O)cc1`, the EC50 is > 80 µM (inactive).

With `Nc1cccc(-c2nc3cc(S(=O)(=O)c4ccc5oc(-c6cccc(N)c6)nc5c4)ccc3o2)c1`, the EC50 was 24.1 µM (inactive).

Regarding `COc1cc2[nH]c3c(N4CCN(c5ccc(Cl)cc5)CC4)ncnc3c2cc1OC`, the EC50 is > 80 µM (inactive).

On to `CCOC(=O)C1=C(O)/C(=C/c2cn(CC(=O)NCC3CCCO3)c3ccccc23)SC1=Nc1ccc(C)cc1` (centres undefined), for which the EC50 is > 80 µM (inactive).

On to `CCc1cc2c(C)ccc(C)c2nc1SCC(=O)Nc1c[nH]c(=O)[nH]c1=O`, for which the EC50 is > 80 µM (inactive).

In the case of `O=C(Nc1ccc(O)c(-c2nc3ccccc3s2)c1)c1cc(=O)c2ccccc2o1`, the EC50 is > 80 µM (inactive).

As to `COc1ccc(-c2csc(NC(=S)NC(=O)/C=C/c3ccccc3)n2)cc1Br`, the pEC50 is 4.88.

`CCOc1cc(CNC(C)(C)CO)cc(Br)c1OCc1ccc(Cl)cc1Cl`: the pEC50 was 4.70.

Turning to `NS(=O)(=O)c1ccc(N/N=C/c2cn(-c3ccccc3)nc2-c2cccs2)c([N+](=O)[O-])c1`, the EC50 was > 80 µM (inactive).

With `O=C(Cc1ccccc1)c1c[nH]c(C(=O)C(Cl)(Cl)Cl)c1`, the EC50 is > 80 µM (inactive).

Take `Cc1ccc(NC(=O)c2nc[nH]c2C(=O)NCCCNC(=O)c2[nH]cnc2C(=O)Nc2ccc(C)cc2)cc1`: the EC50 is > 80 µM (inactive).

Take `CC(C)(C)C(=O)NC(=S)NNC(=O)c1ccc(-c2ccccc2)cc1`: the pEC50 is 5.03.

Consider `Cc1cc(NC(=O)CSc2ccc(-c3nc4cc(C)c(C)cc4[nH]3)cn2)no1`, for which the EC50 was > 80 µM (inactive).

`Cc1c(O)cc2c(c1O)C(=O)CC(c1ccccc1)O2` (centres undefined): the pEC50 was 4.97.

As to `C=C(C)[C@@]12OC3(c4ccccc4)O[C@@H]1C1[C@@H]4O[C@]4(CO)[C@@H](O)[C@]4(O)C(=O)C(C)=C[C@H]4[C@@]1(O3)[C@H](C)[C@H]2OC(=O)/C=C/C=C/c1ccccc1` (some centres undefined), the EC50 was 39.1 µM (inactive).

As for `Oc1ccc(-c2nc3ccc4ccccc4c3c3c2CCC3)cc1O`, the EC50 is 28.4 µM (inactive).

With `FC(F)(F)c1nnc2c(Sc3ccccc3)nc3ccc(Cl)cc3n12`, the EC50 was > 80 µM (inactive).

As for `Cc1ccc(O)c(NC(=S)NC(=O)Cc2ccc(Cl)cc2)c1`, the EC50 is 27.1 µM (inactive).

As to `COc1ccc2c(c1)[nH]c1c(=O)n(/N=C/C3C(C)C=C(C)CC3C)c(=O)[nH]c12` (centres undefined), the EC50 is 65.8 µM (inactive).

`Cc1ccccc1NC(=O)c1ccc(N/N=C/c2ccccc2O)c([N+](=O)[O-])c1`: the EC50 is > 80 µM (inactive).

Consider `Cc1nn(-c2ccccc2)c(C)c1/C=N/NC(=O)CSc1nc2ccccc2c(=O)n1-c1ccc(Br)cc1`, for which the EC50 is 35.7 µM (inactive).

On to `COC(=O)c1cc([N+](=O)[O-])c(-n2ccnc2)c([N+](=O)[O-])c1`, for which the EC50 is > 80 µM (inactive).

On to `Nc1nc(-c2cc(O)ccc2[N+](=O)[O-])cc(-c2ccccc2)c1[N+](=O)[O-]`, for which the pEC50 was 5.08.

As for `CCCCC1CCC(C(=O)N(CC(C)C)c2c(N)n(CCCC)c(=O)[nH]c2=O)CC1` (centres undefined), the EC50 was > 80 µM (inactive).

Turning to `N#CCC(=O)N/N=C/c1cn(Cc2ccc3ccccc3c2)c2ccccc12`, the EC50 is 71 µM (inactive).

In the case of `C/C(CCC12CC3CC(CC(C3)C1)C2)=N\NC(N)=S`, the EC50 is 27.3 µM (inactive).

For `O=C1NC(=O)N(Cc2ccc(F)cc2)C(=O)/C1=C/c1cccs1`, the EC50 is > 80 µM (inactive).

For `COc1cccc(/C=N/Nc2ccc([N+](=O)[O-])cn2)c1O`, the EC50 is > 80 µM (inactive).

Regarding `COc1ccc(OCc2n(CC(=O)OC3CC(C)CCC3C(C)C)c3ccccc3[n+]2C)cc1` (centres undefined), the EC50 is > 80 µM (inactive).

With `COc1cc(SC#N)ccc1N=Cc1c(C)[nH]n(-c2ccc(Cl)cc2)c1=O`, the EC50 is > 80 µM (inactive).

As to `Cc1ccccc1OCc1nc(-c2ccc(NC(=O)c3ccc4c(c3)OCO4)cc2)no1`, the EC50 was > 80 µM (inactive).

Take `O=C(CSc1nc2ccccc2c(=O)n1-c1ccccc1)N1CCc2ccccc21`: the EC50 was > 80 µM (inactive).

Turning to `CCc1ccc(N2C(=O)NC(=O)/C(=C\c3cccn3CCOc3ccc(C(C)C)cc3)C2=O)cc1`, the EC50 is > 80 µM (inactive).

Turning to `Cc1nc(NC(=O)c2cc3c(C)nn(-c4ccccc4)c3s2)sc1C(=O)Nc1ccccc1`, the EC50 is 41.3 µM (inactive).

As for `Cc1sc(NC(=O)c2cc(-c3ccc(Cl)cc3)nc3ccccc23)c(C(N)=O)c1C`, the EC50 is 23.9 µM (inactive).

Consider `CCC(=O)Nc1nnc(SCC(=O)c2ccc3c(c2)Cc2ccccc2-3)s1`, for which the EC50 was > 80 µM (inactive).

On to `COc1ccc(-c2sc3ccccc3c2-c2ccc(OCCN(C)C)cc2)cc1`, for which the EC50 is > 80 µM (inactive).

Turning to `CCOc1cc(/C=C2/NC(=S)NC2=O)ccc1OCc1ccc([N+](=O)[O-])cc1`, the EC50 is > 80 µM (inactive).

As to `Cc1ccc(Nc2nc3ccc(Cl)cc3n3cnnc23)cc1F`, the EC50 is > 80 µM (inactive).

In the case of `COc1ccc(CCn2c(C3CCCCC3)nc3c(c(=O)c4ccccc4n3C)c2=O)cc1`, the EC50 was > 80 µM (inactive).

With `Cn1ncc(N=Cc2c(O)ccc3ccccc23)c1C(=O)Nc1cccc(Cl)c1`, the EC50 was > 80 µM (inactive).

On to `COc1ccc(-c2nc3scc(-c4ccc(OC)c(OC)c4)c3c(=O)o2)cc1`, for which the EC50 was > 80 µM (inactive).

On to `CCOc1cc(/C=C2/C(=N)N3C=CSC3=NC2=O)ccc1OCCCOc1ccccc1C`, for which the EC50 was > 80 µM (inactive).

Regarding `Cc1cc(NC(=O)CSc2nc3sc(C)c(C)c3c(=O)n2C2CCCC2)no1`, the EC50 is > 80 µM (inactive).

Consider `Cc1cccc(NC(=O)/C(C#N)=C/c2cn(CC(=O)NCc3ccco3)c3ccccc23)c1C`, for which the EC50 is > 80 µM (inactive).

Turning to `Cc1ccc(/C=C/C(=O)c2cc(Br)ccc2OC(=O)c2ccco2)cc1`, the EC50 is 37.9 µM (inactive).

For `Clc1ccc(-c2ccc(/C=N/Nc3nncc(-c4ccccc4)n3)o2)cc1`, the EC50 was > 80 µM (inactive).

As to `CN(C)C(=O)CCc1ccc2c3c([nH]c2c1)[C@]1(CCc2ccccc2)[C@@H](C(=O)N2CCCCC2)C[C@H](CC(=O)NCCC2=CCCCC2)C(=O)N1CC3`, the EC50 is 35.9 µM (inactive).

As to `Cc1ccc(C(C(=O)NCc2ccco2)N(C(=O)CNC(=O)c2cccs2)c2c(C)cc(C)cc2C)cc1` (centres undefined), the EC50 was > 80 µM (inactive).

With `O=C(Nc1ccc(NC(=O)c2sc3ccccc3c2Cl)cc1Cl)c1ccco1`, the EC50 is 22 µM (inactive).

In the case of `N#C/C(=C\c1ccc(OCc2ccccc2)cc1)C(=O)Nc1nc2c(s1)CCN(Cc1ccccc1)C2`, the EC50 was > 80 µM (inactive).

Take `COc1cc(/C=N/Nc2nc(Nc3ccc(C)cc3)nc(-n3nc(C)cc3C)n2)cc(OC)c1OC`: the pEC50 is 4.71.

Consider `CCOc1cc(/C=N/N=C(/N)c2nonc2N)cc(Br)c1OCc1ccc(Cl)cc1`, for which the EC50 is > 80 µM (inactive).

For `O=S(=O)(c1ccc2nc(-c3ccccc3)[nH]c2c1)N1CCN(c2ccc(Cl)cc2)CC1`, the EC50 was > 80 µM (inactive).

On to `Cc1ccc2nc(/C(C#N)=C/c3ccc(O)c(O)c3)[nH]c2c1`, for which the EC50 was > 80 µM (inactive).

Turning to `CCOC(=O)c1nnc(-c2ccc(C)cc2)nc1Sc1cccc(Cl)c1`, the EC50 is > 80 µM (inactive).

Regarding `C#CCn1c(=NC(=O)c2ccc(S(=O)(=O)N3CCc4ccccc4C3)cc2)sc2cc(S(N)(=O)=O)ccc21`, the EC50 was > 80 µM (inactive).

`Cc1ccc(-c2nc(N/N=C/c3cccc([N+](=O)[O-])c3)c3ccccc3n2)cc1`: the EC50 was > 80 µM (inactive).

As to `OC(CNCC1CCCO1)Cn1c2ccc(Cl)cc2c2cc(Cl)ccc21` (centres undefined), the EC50 is > 80 µM (inactive).

`Cc1cc(NC(=O)c2cc(-c3ccncc3)nc3c(C)cccc23)no1`: the pEC50 was 4.75.

In the case of `N#Cc1cc2c(nc1SCC(=O)Nc1sc3c(c1C#N)CCC3)CCCC2`, the EC50 was > 80 µM (inactive).

In the case of `COc1ccccc1Nc1nnc(SCC(=O)NC(=O)Nc2ccc3c(c2)OCCO3)s1`, the EC50 was > 80 µM (inactive).

Take `CCOC(=O)c1nnc(-c2ccc(C)cc2)nc1Oc1ccc(Cl)cc1Cl`: the EC50 is 40 µM (inactive).

Broadly, the EC50 is the midpoint of the concentration-response curve. In general, pEC50 refers to the negative decadic logarithm of the EC50, by convention in mol/L.
